Source: patent US4766212A, “2H-[1]benzoxepino[5,4-b]-1,4-oxazine derivatives” (Merrell Dow Pharmaceuticals Inc., priority 1987, dated 1988)

Key:
mice [1] = assay: Acetic acid writhing syndrome test for analgesic activity; assay type: in vivo, mouse; settings: for ED50: Mus musculus, sc
Method: J. Pharmacol., 22, 2246 (1964).
Groups of 5 to 10 mice are administered one or more doses of the test compound by the desired route (but not intraperitoneally). At a selected time the mice are administered acetic acid, 0.4 ml (0.25% v/v solution) i.p. Five minutes later, the mice are observed for a period of 15 minutes to determine the appearance of squirming (abdominal writhing), and the number of squirms for each mouse is determined.
For ED50 determination, four or more doses of compound are tested in groups of 10 mice. The following ED50 's for analgesic activity were observed and determined.

[2] = test system: Spontaneously hypertensive rats; assay: Systolic arterial blood pressure in spontaneously hypertensive rats (antihypertensive activity); assay type: in vivo, rat; settings: for Change In Systolic Blood Pressure From Control Post Treatment: * p < 0.05
Method: Spontaneously hypertensive rates (males 250-300 g), obtained from the Charles River Breeding Laboratories, are divided into different treatment groups of 12 rats each. On separate days, one group of 12 rats is given 3, 10 or 30 mg/kg of the test compound, trans-3,4,4a,5,6,11b-hexahydro-10-fluoro-2H-[1]benzoxepino[5,4-b]-1,4-oxazine hydrochloride, by gavage and another group of 12 rats is given water (vehicle, 5 ml/kg).
Systolic arterial blood pressure is recorded from the tail of each rat using an occluding cuff and transducer. Systolic arterial blood pressure is recorded prior and subsequent to the administration of drug or vehicle at 1, 2, 3 and 4 hours post treatment.

mice [3] = assay: Reduction of motor ability, rotorod; assay type: in vivo; settings: Mus musculus, ip, 50% decrease in mean time on the rotorod
Method: Following a method of Kinnard and Carr, J. Pharmacol. Exp. Therap., 121, 354 (1957), groups of 10 mice are preselected for their ability to remain upon a horizontal rotating (15 rpm) rod (rotorod) for 120 seconds. The mice are dosed with the test compound and tested at various times. The percent change in mean time upon the rotorod from the pre-drug control time of 120 seconds is calculated for each dose group. […] The ED50 is defined as the dose of compound producing a 50% decrease in mean time on the rotorod.

[4] = test system: morphine-induced Straub tail; assay: Antagonism of morphine-induced Straub tail (muscle relaxant activity); assay type: in vivo; settings: Mus musculus, ip; mice, i.p., 15 min before morphine sulfate s.c.
Method: The characteristic elevation of the mouse tail (Straub tail) following morphine administration is due to a sustained, centrally mediated reflex contraction of the sacrococcygeus dorsalis muscle. Five to ten mice are used in each test, weight (18 to 30 grams) and placed in a Plexiglass observation chamber 2 to 3 minutes prior to injection. Animals are treated with the test compound at log doses, ca. 10 ml/kg, based upon the ED50 obtained from the Rotorod test (reduction of motor ability). Fifteen minutes later the desired dose of morphine sulfate, ca. 10 ml/kg, is injected subcutaneously and the mice observed for a period of 30 minutes following morphine administration for the presence or absence of Straub tail (defined as elevation of tail at 90° C. or more).

[5] = 0.5 h, oral, pretreatment time 30 minutes
[6] = 0.5 h, subcutaneous, pretreatment time 30 minutes
[7] = 1 h, subcutaneous, pretreatment time 60 minutes
[8] = 2 h, subcutaneous, pretreatment time 120 minutes

CCN1CCO[C@@H]2c3ccccc3OCC[C@H]21 (relative stereo) [Trans-4-Ethyl-3,4,4a,5,6,11b-hexahydro-2H-[1]benzoxepino[5,4-b]-1,4-oxazine]
ED50 (mice [1]; [5]): 6.8 mg/kg
ED50 (mice [1]; [6]): 1.5 mg/kg
ED50 (mice [1]; [7]): 8.8 mg/kg
ED50 (mice [1]; [8]): > 128 mg/kg

Cl.Fc1ccc2c(c1)[C@H]1OCCN[C@@H]1CCO2 (relative stereo) [trans-3,4,4a,5,6,11b-hexahydro-10-fluoro-2H-[1]benzoxepino[5,4-b]-1,4-oxazine hydrochloride]
Change In Systolic Blood Pressure From Control Post Treatment ([2]; 3 mg/kg by gavage, 1 Hour): -15 mm Hg
Change In Systolic Blood Pressure From Control Post Treatment ([2]; 3 mg/kg by gavage, 2 Hours): -20 mm Hg
Change In Systolic Blood Pressure From Control Post Treatment ([2]; 3 mg/kg by gavage, 3 Hours): -22 mm Hg
Change In Systolic Blood Pressure From Control Post Treatment ([2]; 3 mg/kg by gavage, 4 Hours): -24 mm Hg
Change In Systolic Blood Pressure From Control Post Treatment ([2]; 10 mg/kg by gavage, 1 Hour): -52 mm Hg
Change In Systolic Blood Pressure From Control Post Treatment ([2]; 10 mg/kg by gavage, 2 Hours): -44 mm Hg
Change In Systolic Blood Pressure From Control Post Treatment ([2]; 10 mg/kg by gavage, 3 Hours): -42 mm Hg
Change In Systolic Blood Pressure From Control Post Treatment ([2]; 10 mg/kg by gavage, 4 Hours): -45 mm Hg
Change In Systolic Blood Pressure From Control Post Treatment ([2]; 30 mg/kg by gavage, 1 Hour): -84 mm Hg
Change In Systolic Blood Pressure From Control Post Treatment ([2]; 30 mg/kg by gavage, 2 Hours): -73 mm Hg
Change In Systolic Blood Pressure From Control Post Treatment ([2]; 30 mg/kg by gavage, 3 Hours): -73 mm Hg
Change In Systolic Blood Pressure From Control Post Treatment ([2]; 30 mg/kg by gavage, 4 Hours): -72 mm Hg
effect on systolic arterial blood pressure, in words ([2]; 3, 10, 30 mg/kg by gavage): dose related decrease in systolic arterial blood pressure that is statistically significant
duration of the anti-hypertensive effect ([2]; at the three doses tested (3, 10, 30 mg/kg, gavage)): at least 4 hours

CN1CCO[C@@H]2c3ccccc3OCC[C@H]21.O=C(O)/C=C\C(=O)O (relative stereo) [Trans-3,4,4a,5,6,11b-Hexahydro-4-methyl-2H-[1]benzoxepino[5,4-b]-1,4-oxazine Maleate]
ED50 (mice [3]): 12.4 mg/kg
ED50 (mice [1]; [5]): 42.8 mg/kg
ED50 (mice [1]; [6]): 4.35 mg/kg
ED50 (mice [1]; 1 h, oral, pretreatment time 60 minutes): 52.2 mg/kg
ED50 (mice [1]; [7]): 13.8 mg/kg
ED50 (mice [1]; [8]): 26.6 mg/kg
analgesic effect in brackets beside the ED50 (mice [1]; subcutaneous, pretreatment time 120 minutes, @ 256 mg/kg): 50%
ED50 [4]: 2.89 mg/kg

Cl.c1ccc2c(c1)OCC[C@H]1NCCO[C@H]21 (relative stereo) [Trans-3,4,4a,5,6,11b-Hexahydro-2H-[1]benzoxepino-[5,4-b]-1,4-oxazine Hydrochloride]
ED50 (mice [3]): 23.9 mg/kg
ED50 [4]: 1.03 mg/kg
